# Reference: patent publication US9536718B2, “Detection of membrane protein-therapeutic agent complexes by mass spectrometry” (Oxford University Innovation Limited, priority 2011, dated 2017)
# Legend:
# P-gp = experiment: native mass spectrometry of P-gp with CsA, nucleotides and lipid (Example 2); format: binding; conditions: for number of nucleotides bound to P-gp: 1 mM MgCl2 plus 50 μM ATP or ATPγS, FIG. 2c
# Experimental: His-tagged P-glycoprotein was expressed in P.pastoris and purified according to a protocol described previously (see Aller et al, supra). Lipids were purchased from Avanti Polar Lipids.
# Before analysis, P-gp was buffer exchanged into 200 mM ammonium acetate pH 7 supplemented with 0.02% n-dodecyl-β-D-maltoside (DDM), using micro BioSpin-6 devices (Bio-Rad). Lipids were first prepared at 2 mM in chloroform and then diluted to 20 μM in 200 mM ammonium acetate pH 7 supplemented with 0.02% DDM. Cyclosporin was first dissolved at 8 mM in methanol and then diluted to 5-100 μM in 200 mM ammonium acetate pH 7 supplemented with 0.02% DDM. MS spectra were acquired on a Q-TOF2 (Micromass) modified for the transmission and detection of high mass complexes. Samples were introduced in the ion-source via gold-coated nanoflow capillaries. […] Micelle transmission was enhanced by increasing the Pirani pressure to 30 mbar. […] Spectra were analysed with Massign software.
# mouse P-gp = experiment: nanoelectrospray MS / IM-MS of P-gp pre-incubated with drug compounds (Example 1); format: binding; conditions: 2-3 mg/ml P-gp pre-incubated with 1-10 molar equivalents of test compound; FIG. 1
# Experimental: P-glycoprotein (P-gp) was expressed and purified as reported previously (Aller et al, Science, 2009, 323, 1718-1722). In this method, P-gp was expressed in P. pastoris strain and purified as a his-tagged protein from the membranes solubilised with Triton X-100. Buffer was exchanged by washing with buffer containing 20 mM imidazole, 0.04% sodium cholate and 0.0675% β-DDM. The protein was concentrated, subjected to gel filtration chromatography and assayed for purity by SDS-PAGE.
# An aliquot (30 μl) of mouse P-gp solution (9 mg/ml) in 0.07% β-DDM, 0.04% sodium cholate, 100 mM NaCl, 0.2 mM TCEP, 20 mM Hepes, pH 7.5 was buffer-exchanged using a membrane filter and diluted 3-fold in 300 mM ammonium acetate, pH 7.5. Spectra of P-gp with drug compounds were obtained by first pre-incubating 2-3 mg/ml P-gp protein with 1-10 molar equivalents of the test compound for 15 minutes to overnight prior to nanoelectrospray ionisation mass spectrometry.
# Mass spectrometry measurements were carried out on a Synapt HDMS (Waters, Manchester, UK) quadrupole-S2 ion-trap-IM-MS instrument modified for transmission and detection of ions at high m/z ratios. Aliquots of complex-containing solutions (2 μL) in detergent were introduced via gold-coated nanoflow electrospray capillaries. […]
Compound,number of nucleotides bound to P-gp (P-gp),further results
"Nc1ncnc2c1ncn2[C@@H]1O[C@H](COP(=O)(O)OP(=O)(O)OP(=O)(O)O)[C@@H](O)[C@H]1O [ATP, adenosine triphosphate]",one or two,–
Nc1ncnc2c1ncn2[C@@H]1O[C@H](COP(=O)(O)OP(=O)(O)OP(O)(O)=S)[C@@H](O)[C@H]1O [ATPγS],one or two,–
"CC(C)[C@H]1NC(=O)c2c[se]c(n2)[C@@H](C(C)C)NC(=O)c2c[se]c(n2)[C@@H](C(C)C)NC(=O)c2c[se]c1n2 [QZ59Se, RRR]",–,effect of drug binding on the mass spectrum of P-gp (mouse P-gp): altered the mass spectrum of the membrane protein
cardiolipin 14:1(3)-15:1,–,"number of molecules bound to P-gp already bound to one ATP or ATPγS (P-gp; first incubated with ATP or ATPγS, then with cardiolipin or CsA, FIG. 3a, b): one or two"
